Active and inactive are the calls of the source. No cut-off for these calls is given here.
Columns and labels:
[1] = target: Cyclin-dependent kinase 19 (Homo sapiens) (UniProt Q9BWU1); details: Compound concentration 100.0 nM
[2] = target: Serine/threonine-protein kinase D3 (Homo sapiens) (UniProt O94806); details: Compound concentration 100.0 nM
[3] = target: Serine/threonine-protein kinase 4 (Homo sapiens) (UniProt Q13043); details: Compound concentration 100.0 nM
[4] = target: NUAK family SNF1-like kinase 1 (Homo sapiens) (UniProt O60285); details: Compound concentration 100.0 nM
[5] = target: Serine/threonine-protein kinase ULK1 (Homo sapiens) (UniProt O75385); details: Compound concentration 100.0 nM
[6] = target: Muscarinic acetylcholine receptor M5 (Homo sapiens) (UniProt P08912); details: Compound concentration 10.0 uM
[7] = target: Protein-tyrosine kinase 2-beta (Homo sapiens) (UniProt Q14289); details: Compound concentration 100.0 nM
[8] = target: Ribosomal protein S6 kinase beta-1 (Homo sapiens) (UniProt P23443); details: Compound concentration 100.0 nM
[9] = target: Death-associated protein kinase 1 (Homo sapiens) (UniProt P53355); details: Compound concentration 100.0 nM
[10] = target: Tyrosine-protein kinase FRK (Homo sapiens) (UniProt P42685); details: Compound concentration 100.0 nM
[11] = target: 5-hydroxytryptamine receptor 5A (Homo sapiens) (UniProt P47898); details: Compound concentration 10.0 uM
[12] = target: Casein kinase I isoform gamma-1 (Homo sapiens) (UniProt Q9HCP0); details: Compound concentration 100.0 nM
[13] = target: Serine/threonine-protein kinase PAK 1 (Homo sapiens) (UniProt Q13153); details: Compound concentration 100.0 nM
[14] = target: AP2-associated protein kinase 1 (Homo sapiens) (UniProt Q2M2I8); details: Compound concentration 100.0 nM
[15] = target: Fibroblast growth factor receptor 2 (Homo sapiens) (UniProt P21802); details: Compound concentration 100.0 nM
[16] = target: Mitogen-activated protein kinase kinase kinase 15 (Homo sapiens) (UniProt Q6ZN16); details: Compound concentration 100.0 nM
[17] = target: Rhodopsin kinase GRK1 (Homo sapiens) (UniProt Q15835); details: Compound concentration 100.0 nM
[18] = target: Serine/threonine-protein kinase PAK 2 (Homo sapiens) (UniProt Q13177); details: Compound concentration 100.0 nM
[19] = target: Serine/threonine-protein kinase 32A (Homo sapiens) (UniProt Q8WU08); details: Compound concentration 100.0 nM
[20] = target: Insulin receptor (Homo sapiens) (UniProt P06213); details: Compound concentration 100.0 nM
[21] = target: Dual specificity mitogen-activated protein kinase kinase 6 (Homo sapiens) (UniProt P52564); details: Compound concentration 100.0 nM
[22] = target: Ankyrin repeat and protein kinase domain-containing protein 1 (Homo sapiens) (UniProt Q8NFD2); details: Compound concentration 100.0 nM
[23] = target: Leukocyte tyrosine kinase receptor (Homo sapiens) (UniProt P29376); details: Compound concentration 100.0 nM
[24] = target: Ephrin type-A receptor 3 (Homo sapiens) (UniProt P29320); details: Compound concentration 100.0 nM
[25] = target: Myotonin-protein kinase (Homo sapiens) (UniProt Q09013); details: Compound concentration 100.0 nM
[26] = target: Serine/threonine-protein kinase BRSK2 (Homo sapiens) (UniProt Q8IWQ3); details: Compound concentration 100.0 nM
[27] = target: Serine/threonine-protein kinase PLK1 (Homo sapiens) (UniProt P53350); details: Compound concentration 100.0 nM
[28] = target: Mast/stem cell growth factor receptor Kit (Homo sapiens) (UniProt P10721); details: Compound concentration 100.0 nM
[29] = target: Misshapen-like kinase 1 (Homo sapiens) (UniProt Q8N4C8); details: Compound concentration 100.0 nM
[30] = target: 5'-AMP-activated protein kinase catalytic subunit alpha-2 (Homo sapiens) (UniProt P54646); details: Compound concentration 100.0 nM
[31] = target: MAP/microtubule affinity-regulating kinase 3 (Homo sapiens) (UniProt P27448); details: Compound concentration 100.0 nM
[32] = target: Casein kinase I isoform gamma-3 (Homo sapiens) (UniProt Q9Y6M4); details: Compound concentration 100.0 nM
[33] = target: Myosin light chain kinase (Homo sapiens) (UniProt Q32MK0); details: Compound concentration 100.0 nM
[34] = target: Dual specificity mitogen-activated protein kinase kinase 1 (Homo sapiens) (UniProt Q02750); details: Compound concentration 100.0 nM
[35] = target: Leucine-rich repeat serine/threonine-protein kinase 2 (Homo sapiens) (UniProt Q5S007); details: Compound concentration 100.0 nM
[36] = target: Histamine H1 receptor (Homo sapiens) (UniProt P35367); details: Compound concentration 10.0 uM
[37] = target: Serine/threonine-protein kinase tousled-like 1 (Homo sapiens) (UniProt Q9UKI8); details: Compound concentration 100.0 nM
Mast cell = experiment: Human Mast Cell degranulation; assay type: cell-based
[38] = system: Receptor-type tyrosine-protein kinase FLT3 (Homo sapiens), P36888 [D835H]; details: Compound concentration 100.0 nM
[39] = target: Death-associated protein kinase 2 (Homo sapiens) (UniProt Q9UIK4); details: Compound concentration 100.0 nM
[40] = target: Ephrin type-B receptor 4 (Homo sapiens) (UniProt P54760); details: Compound concentration 100.0 nM
[41] = target: Cyclin-dependent kinase 13 (Homo sapiens) (UniProt Q14004); details: Compound concentration 100.0 nM
[42] = target: Rho-associated protein kinase 1 (Homo sapiens) (UniProt Q13464); details: Compound concentration 100.0 nM
[43] = target: Tyrosine-protein kinase ZAP-70 (Homo sapiens) (UniProt P43403); details: Compound concentration 100.0 nM
[44] = target: RAC-alpha serine/threonine-protein kinase (Homo sapiens) (UniProt P31749); details: Compound concentration 100.0 nM
[45] = target: Calcium/calmodulin-dependent protein kinase type 1B (Homo sapiens) (UniProt Q6P2M8); details: Compound concentration 100.0 nM

Serine/threonine-protein kinase PAK 1 (Homo sapiens), sequence (Q13153 whole entry): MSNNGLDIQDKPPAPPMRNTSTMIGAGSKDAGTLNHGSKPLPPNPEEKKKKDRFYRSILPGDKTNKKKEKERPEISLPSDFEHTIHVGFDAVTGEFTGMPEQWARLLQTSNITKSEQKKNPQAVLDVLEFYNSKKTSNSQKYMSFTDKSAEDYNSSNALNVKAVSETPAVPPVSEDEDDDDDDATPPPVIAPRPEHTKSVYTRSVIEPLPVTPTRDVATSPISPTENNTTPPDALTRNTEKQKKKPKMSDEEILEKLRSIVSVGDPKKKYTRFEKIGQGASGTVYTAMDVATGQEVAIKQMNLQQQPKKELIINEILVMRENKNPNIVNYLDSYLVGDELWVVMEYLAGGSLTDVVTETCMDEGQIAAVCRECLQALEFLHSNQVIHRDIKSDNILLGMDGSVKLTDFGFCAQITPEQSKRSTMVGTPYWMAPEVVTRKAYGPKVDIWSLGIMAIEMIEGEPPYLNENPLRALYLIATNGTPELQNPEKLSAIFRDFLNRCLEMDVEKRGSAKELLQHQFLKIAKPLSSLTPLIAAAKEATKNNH
Cyclin-dependent kinase 19 (Homo sapiens), sequence (Q9BWU1 whole entry): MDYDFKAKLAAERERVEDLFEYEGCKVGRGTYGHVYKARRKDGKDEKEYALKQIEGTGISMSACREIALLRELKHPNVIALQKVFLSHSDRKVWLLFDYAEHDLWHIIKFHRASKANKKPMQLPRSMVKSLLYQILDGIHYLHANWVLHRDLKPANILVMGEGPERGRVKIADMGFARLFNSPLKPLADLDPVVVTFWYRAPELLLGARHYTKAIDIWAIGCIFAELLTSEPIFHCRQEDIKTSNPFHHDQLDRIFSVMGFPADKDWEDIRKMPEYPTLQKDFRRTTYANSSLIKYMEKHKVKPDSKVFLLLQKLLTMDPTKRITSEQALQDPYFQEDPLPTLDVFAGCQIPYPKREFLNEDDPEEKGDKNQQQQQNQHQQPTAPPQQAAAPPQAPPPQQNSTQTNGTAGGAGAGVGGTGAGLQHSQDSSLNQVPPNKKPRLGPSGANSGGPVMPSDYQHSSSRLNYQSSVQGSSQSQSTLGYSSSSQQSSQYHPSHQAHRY
Serine/threonine-protein kinase tousled-like 1 (Homo sapiens), sequence (Q9UKI8 whole entry): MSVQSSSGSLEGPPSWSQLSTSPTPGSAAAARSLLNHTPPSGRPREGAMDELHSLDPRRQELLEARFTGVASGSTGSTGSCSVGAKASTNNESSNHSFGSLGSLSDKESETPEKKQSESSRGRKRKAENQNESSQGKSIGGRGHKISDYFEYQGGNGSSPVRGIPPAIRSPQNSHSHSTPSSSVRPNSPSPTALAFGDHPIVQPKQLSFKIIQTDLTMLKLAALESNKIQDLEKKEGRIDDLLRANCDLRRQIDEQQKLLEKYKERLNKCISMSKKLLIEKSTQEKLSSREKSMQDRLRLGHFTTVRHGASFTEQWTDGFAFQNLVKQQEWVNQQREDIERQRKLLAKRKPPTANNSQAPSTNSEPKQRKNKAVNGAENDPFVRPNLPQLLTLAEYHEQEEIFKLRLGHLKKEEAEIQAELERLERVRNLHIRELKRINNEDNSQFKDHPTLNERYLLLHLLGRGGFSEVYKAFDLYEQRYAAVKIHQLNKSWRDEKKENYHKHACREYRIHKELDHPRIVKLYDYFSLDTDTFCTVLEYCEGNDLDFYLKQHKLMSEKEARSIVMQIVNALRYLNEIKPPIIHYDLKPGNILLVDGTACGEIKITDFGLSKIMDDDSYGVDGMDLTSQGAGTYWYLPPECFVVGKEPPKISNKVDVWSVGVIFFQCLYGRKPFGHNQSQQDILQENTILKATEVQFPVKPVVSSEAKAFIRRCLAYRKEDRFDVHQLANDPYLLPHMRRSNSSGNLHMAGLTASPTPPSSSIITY
Fibroblast growth factor receptor 2 (Homo sapiens), sequence (P21802 22-821 limits assumed): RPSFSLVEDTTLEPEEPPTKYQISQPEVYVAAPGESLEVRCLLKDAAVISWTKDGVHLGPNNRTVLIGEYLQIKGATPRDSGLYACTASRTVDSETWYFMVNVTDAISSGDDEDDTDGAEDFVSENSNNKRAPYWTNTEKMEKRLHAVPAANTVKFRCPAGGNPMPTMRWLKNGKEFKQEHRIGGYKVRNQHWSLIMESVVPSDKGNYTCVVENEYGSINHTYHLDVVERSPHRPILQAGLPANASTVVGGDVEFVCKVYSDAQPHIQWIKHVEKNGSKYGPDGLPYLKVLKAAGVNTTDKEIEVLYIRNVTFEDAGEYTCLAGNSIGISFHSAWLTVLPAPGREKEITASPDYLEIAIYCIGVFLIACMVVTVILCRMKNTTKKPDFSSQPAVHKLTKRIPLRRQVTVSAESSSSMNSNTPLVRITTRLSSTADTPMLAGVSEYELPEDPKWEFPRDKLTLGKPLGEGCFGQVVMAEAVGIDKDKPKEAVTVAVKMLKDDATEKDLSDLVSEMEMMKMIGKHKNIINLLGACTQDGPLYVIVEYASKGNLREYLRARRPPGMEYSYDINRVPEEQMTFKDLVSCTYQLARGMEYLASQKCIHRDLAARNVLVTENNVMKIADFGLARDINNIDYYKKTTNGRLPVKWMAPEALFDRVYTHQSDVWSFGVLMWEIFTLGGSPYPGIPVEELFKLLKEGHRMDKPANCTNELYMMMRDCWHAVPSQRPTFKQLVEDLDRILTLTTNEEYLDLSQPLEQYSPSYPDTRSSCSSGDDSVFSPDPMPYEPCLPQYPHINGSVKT
Rho-associated protein kinase 1 (Homo sapiens), sequence (Q13464 2-1354 limits assumed): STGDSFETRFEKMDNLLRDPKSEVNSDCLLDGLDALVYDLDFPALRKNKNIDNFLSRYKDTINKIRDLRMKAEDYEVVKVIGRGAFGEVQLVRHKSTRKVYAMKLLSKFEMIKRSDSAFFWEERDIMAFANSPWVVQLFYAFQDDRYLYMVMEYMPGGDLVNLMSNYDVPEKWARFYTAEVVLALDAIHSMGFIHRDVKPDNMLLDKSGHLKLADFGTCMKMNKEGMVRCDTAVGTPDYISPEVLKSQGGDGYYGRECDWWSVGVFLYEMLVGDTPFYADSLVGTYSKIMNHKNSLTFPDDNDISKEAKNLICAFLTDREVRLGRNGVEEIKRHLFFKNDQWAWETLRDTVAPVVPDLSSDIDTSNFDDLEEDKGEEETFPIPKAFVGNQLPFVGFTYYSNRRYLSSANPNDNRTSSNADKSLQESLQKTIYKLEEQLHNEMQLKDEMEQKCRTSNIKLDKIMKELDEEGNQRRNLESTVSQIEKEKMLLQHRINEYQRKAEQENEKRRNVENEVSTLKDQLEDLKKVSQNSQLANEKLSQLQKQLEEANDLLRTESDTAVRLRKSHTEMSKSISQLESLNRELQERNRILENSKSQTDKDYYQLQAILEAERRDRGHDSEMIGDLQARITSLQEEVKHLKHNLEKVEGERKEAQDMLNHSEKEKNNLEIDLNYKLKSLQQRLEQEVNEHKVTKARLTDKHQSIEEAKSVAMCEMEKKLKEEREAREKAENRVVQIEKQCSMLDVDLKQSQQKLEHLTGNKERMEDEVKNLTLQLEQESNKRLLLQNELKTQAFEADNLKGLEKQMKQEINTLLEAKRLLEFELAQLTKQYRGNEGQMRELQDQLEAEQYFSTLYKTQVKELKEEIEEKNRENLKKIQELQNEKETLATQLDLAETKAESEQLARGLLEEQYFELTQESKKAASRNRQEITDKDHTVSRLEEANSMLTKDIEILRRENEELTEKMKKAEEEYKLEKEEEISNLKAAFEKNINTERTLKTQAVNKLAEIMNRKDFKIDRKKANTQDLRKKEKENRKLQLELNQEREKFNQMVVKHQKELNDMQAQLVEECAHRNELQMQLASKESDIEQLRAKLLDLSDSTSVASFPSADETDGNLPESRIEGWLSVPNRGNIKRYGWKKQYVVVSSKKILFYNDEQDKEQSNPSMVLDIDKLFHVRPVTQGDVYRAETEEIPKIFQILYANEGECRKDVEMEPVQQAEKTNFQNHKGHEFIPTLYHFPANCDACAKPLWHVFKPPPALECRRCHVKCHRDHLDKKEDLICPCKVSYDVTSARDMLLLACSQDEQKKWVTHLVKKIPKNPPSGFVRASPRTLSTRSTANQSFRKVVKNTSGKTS
Serine/threonine-protein kinase BRSK2 (Homo sapiens), sequence (Q8IWQ3 whole entry): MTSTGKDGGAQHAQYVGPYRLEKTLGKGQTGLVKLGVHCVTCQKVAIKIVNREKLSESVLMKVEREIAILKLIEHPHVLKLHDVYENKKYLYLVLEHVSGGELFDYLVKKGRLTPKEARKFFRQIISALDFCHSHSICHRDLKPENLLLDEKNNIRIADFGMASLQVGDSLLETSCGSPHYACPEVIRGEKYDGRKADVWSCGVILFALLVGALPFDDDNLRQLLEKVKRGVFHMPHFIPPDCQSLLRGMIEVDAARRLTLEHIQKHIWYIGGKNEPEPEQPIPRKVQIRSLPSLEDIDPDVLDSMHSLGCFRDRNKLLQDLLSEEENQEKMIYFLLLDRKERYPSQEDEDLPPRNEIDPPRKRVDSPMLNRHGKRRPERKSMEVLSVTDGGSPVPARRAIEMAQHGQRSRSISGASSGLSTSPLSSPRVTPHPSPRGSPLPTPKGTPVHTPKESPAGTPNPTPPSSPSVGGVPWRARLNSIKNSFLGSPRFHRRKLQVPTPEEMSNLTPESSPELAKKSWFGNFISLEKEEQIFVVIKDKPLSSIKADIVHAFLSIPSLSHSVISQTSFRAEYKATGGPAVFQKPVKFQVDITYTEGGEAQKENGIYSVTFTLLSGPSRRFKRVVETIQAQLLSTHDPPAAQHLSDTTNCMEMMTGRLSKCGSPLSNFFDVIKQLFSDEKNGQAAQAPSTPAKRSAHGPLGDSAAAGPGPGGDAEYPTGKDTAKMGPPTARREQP
Dual specificity mitogen-activated protein kinase kinase 6 (Homo sapiens), sequence (P52564 whole entry, the tested form may be a part): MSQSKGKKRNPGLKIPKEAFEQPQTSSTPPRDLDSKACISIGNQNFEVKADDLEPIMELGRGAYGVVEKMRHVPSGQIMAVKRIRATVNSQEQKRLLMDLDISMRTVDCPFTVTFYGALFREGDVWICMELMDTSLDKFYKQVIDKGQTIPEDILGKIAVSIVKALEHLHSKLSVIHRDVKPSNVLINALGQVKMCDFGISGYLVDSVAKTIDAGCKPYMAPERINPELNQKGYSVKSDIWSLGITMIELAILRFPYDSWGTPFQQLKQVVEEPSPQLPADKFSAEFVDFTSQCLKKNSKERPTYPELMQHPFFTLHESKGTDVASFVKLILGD

`Cc1ccc(-c2cnc([C@@]3(O)CC[C@H](C(=O)O)C(C)(C)C3)s2)cc1Nc1cccc(C(F)(F)F)n1` [MRL-SYKi-NC] was tested, and the residual activity [1] was 95.3%, the residual activity [2] was 100% and the residual activity [3] was 69.1%. The residual activity [4] was 100%, the residual activity [5] was 73.1% and the inhibition [6] was -4.28%. The residual activity [7] was 72.5%, the residual activity [8] was 85.9% and the residual activity [9] was 100%. It also gave a residual activity [10] of 100%, an inhibition [11] of -4.56% and a residual activity [12] of 91.8%. For the same molecule, the residual activity [13] was 94.5%, the residual activity [14] was 85.7% and the residual activity [15] was 100%. For the same molecule, the residual activity [16] was 85%, the residual activity [17] was 82.1% and the residual activity [18] was 89.5%. The residual activity [19] was 89.7%, the residual activity [20] was 78.7% and the residual activity [21] was 89.3%. The residual activity [22] was 93.5%, the residual activity [23] was 75.8% and the residual activity [24] was 93.7%. The residual activity [25] was 93.7%, the residual activity [26] was 60.7% and the residual activity [27] was 20.2%. For the same molecule, the residual activity [28] was 100%, the residual activity [29] was 100% and the residual activity [30] was 94.7%. The residual activity [31] was 100%, the residual activity [32] was 89.1% and the residual activity [33] was 90.9%. It also gave a residual activity [34] of 95%, a residual activity [35] of 87.4% and an inhibition [36] of 9.09%. For the same molecule, the residual activity [37] was 100%, the IC50 (Mast cell) was > 10 µM (not active) and the residual activity [38] was 100%. For the same molecule, the residual activity [39] was 84.8%, the residual activity [40] was 100% and the residual activity [41] was 45.7%. For the same molecule, the residual activity [42] was 100%, the residual activity [43] was 88.5% and the residual activity [44] was 92.3%. The residual activity [45] was 95.9%.

In the case of `Cc1cc(Nc2nccc(C)n2)cc(-c2cnc([C@@]3(O)CC[C@H](C(=O)O)C(C)(C)C3)s2)c1` [MRL-SYKi], the residual activity [1] is reported as 85%, the residual activity [2] is reported as 100% and the residual activity [3] is reported as 100%. The residual activity [4] was 100%, the residual activity [5] was 100% and the inhibition [6] was 0.943%. It also gave a residual activity [7] of 100%, a residual activity [8] of 78.2% and a residual activity [9] of 100%. For the same molecule, the residual activity [10] was 100%, the inhibition [11] was 10% and the residual activity [12] was 100%. For the same molecule, the residual activity [13] was 100%, the residual activity [14] was 100% and the residual activity [15] was 67.3%. For the same molecule, the residual activity [16] was 80.5%, the residual activity [17] was 71.7% and the residual activity [18] was 100%. For the same molecule, the residual activity [19] was 100%, the residual activity [20] was 100% and the residual activity [21] was 100%. It also gave a residual activity [22] of 100%, a residual activity [23] of 100% and a residual activity [24] of 100%. For the same molecule, the residual activity [25] was 99.8%, the residual activity [26] was 100% and the residual activity [27] was 100%. It also gave a residual activity [28] of 93.2%, a residual activity [29] of 80.7% and a residual activity [30] of 100%. For the same molecule, the residual activity [31] was 100%, the residual activity [32] was 99.9% and the residual activity [33] was 100%. The residual activity [34] was 100%, the residual activity [35] was 87.1% and the inhibition [36] was 7.85%. For the same molecule, the residual activity [37] was 100%, the IC50 (Mast cell) was 0.038 µM (active) and the residual activity [38] was 70.7%. It also gave a residual activity [39] of 100%, a residual activity [40] of 100% and a residual activity [41] of 89.5%. It also gave a residual activity [42] of 70.7%, a residual activity [43] of 44.9% and a residual activity [44] of 100%. The residual activity [45] was 78.1%.

Source: ChEMBL document CHEMBL4507285, “Data for DCP probe MRL-SYKi” (2021)
